The record followed here is patent US5830855A, “Lipodepsipeptides as antifungal and fungicidal agents” (priority 1996, dated 1998).

Assay [1] deals with clinical isolates (fungi). In words: Broth microdilution MIC, fungal isolates overall. The assay is classed as cell-based. Particulars: summary range over the fungi tested. The source says:
Most of the fungal strains used in the tests were clinical isolates obtained from the University of Texas Health Science Center at San Antonio Fungus Testing Laboratory (San Antonio, Tex.) and the remaining isolates were ATCC strains.
(§1) Medium: Liquid RPMI 1640 (RPMI) medium with L-glutamine and without sodium bicarbonate (Sigma Chemical Co., R-6504; St. Louis, Mo.) buffered with 0.165M MOPS (34.54 g/liter) was used for in vitro antifungal tests. The medium was adjusted to pH 7.0 with 10M NaOH and filter sterilized.
Lipodepsipeptide Dilutions: All stock drug solution concentrations were at least 10-fold higher than the highest concentration tested. […]
Preparation of Inoculum Suspensions: On Sabouraud dextose agar (SDA; BBL, Becton and Dickinson and Co., Cockeysville, Md.) all isolates were subcultured at least twice before use to ensure purity and viability. […] The turbidity of each mixed suspension was measured at 530 nm and adjusted to 1×10^6 to 5×10^6 CFU/ml by the NCCLS spectrophotometric method described by National Committee for Clinical Laboratory Standards. […]
Aspergillus fumigatus and Mucor spp. were grown for 1 wk at 35° C. […] The stock suspensions of all filamentous fungi were measured at 530 nm and adjusted to 85-87% transmission. The concentration (1×10^6 to 5×10^6 CFU/ml) was determined by hemacytometer count or plate count on SDA. […]

For a further assay, the system named is Mucor spp. Description: Broth microdilution MIC. The assay is classed as cell-based. The note with it: Table 1 (MICs), 5 isolates, 48 hr. How it is done: as §1
Lipodepsipeptide Dilutions: All stock drug solution concentrations were at least 10-fold higher than the highest concentration tested. AmB, ketoconazole, and the test compounds (SR-E, ST-B, and SS-A) were dissolved in sterile distilled water, 0.2N HCl, and 0.001N HCl, respectively. Each stock solution was diluted to 2× the highest concentration of drug tested with RPMI. Two-fold dilutions were made with RPMI medium.
Preparation of Inoculum Suspensions: On Sabouraud dextose agar (SDA; BBL, Becton and Dickinson and Co., Cockeysville, Md.) all isolates were subcultured at least twice before use to ensure purity and viability. Candida spp. and Saccharomyces cerevisiae were grown for 24 hr at 35° C. Isolates of Cryptococcus neoformans were grown for 48 hr at 35° C. Yeast cells from at least five 1-mm-diameter colonies were suspended in 5 ml of sterile 0.85% saline. The resulting suspension was vortexed for 15 sec. The turbidity of each mixed suspension was measured at 530 nm and adjusted to 1×10^6 to 5×10^6 CFU/ml by the NCCLS spectrophotometric method described by National Committee for Clinical Laboratory Standards. 1992. Reference method for broth dilution antifungal susceptibility testing of yeasts; proposed standard, NCCLS document M27-P (ISBN 1-56238-186-5). NCCLS, Villanova. The final transmission of each yeast suspension ranged from 85-87%.
Aspergillus fumigatus and Mucor spp. were grown for 1 wk at 35° C. The dermatophytes, Microsporum spp. and Trichophyton spp., were grown for two wk at 30° C. Fungal spores were washed from the plates of all good spore formers (A. fumigatus, Mucor spp., Microsporum canis and Trichophyton spp.) by placing 5 ml of 0.85% saline with 0.2% Tween 80 on the plates and mixing with an inoculating loop. The spore/mycelium suspension was drawn off with a pipette and allowed to settle for at least 5 min. For the poor spore-forming Microsporum audouinii, the procedure was the same except the spore/mycelial suspension was homogenized with a ground glass tissue homogenizer and then allowed to settle for at least 5 min. A small amount of the supernatant was transferred to 5 ml of sterile saline and vortexed. The stock suspensions of all filamentous fungi were measured at 530 nm and adjusted to 85-87% transmission. The concentration (1×10^6 to 5×10^6 CFU/ml) was determined by hemacytometer count or plate count on SDA. All stock suspensions were diluted 1000-fold with RPMI, or 2× the final desired test inocula. The 2× inoculum was diluted 1:1 when the wells were inoculated, and the desired inoculum size was achieved.
Broth Microdilution Test: Broth microdilution tests were performed using sterile, disposable, multiwell microdilution plates (96 round U-bottom wells) (Falcon 3077; Becton and Dickinson Labware, Lincoln Park, N.J.). The drugs (2× concentrations) were dispensed into the wells of rows number 1 to 10 of the microdilution plates in 100 μl volumes from highest drug concentration to lowest drug concentration. Each well was inoculated with 100 μl of the corresponding 2× concentrated fungal suspension. The wells of row 11 contained the inoculum with drug-free media as a positive growth control and the wells of row 12 contained uninoculated-drug-free medium as a sterility control.
Incubation and Scoring of MIC: All cultures were incubated without shaking at the temperature used during subculture. Incubation times were 48 hr for Candida spp., S. cerevisiae, A. fumigatus, and Mucor spp; 72 hr for C. neoformans; and 7 days for Microsporum and Trichophyton spp. […]

The structures appear in SMILES notation. Numbered stars: 1 amine (or outer) side, 2 acyl side, 3 side chain; on linkers, the order of the positions; unused ones are H or OH. Bridge positions count the residues as written; N and C are the ends. Square brackets hold non-standard residues; d marks the D form. Peptide text beside a SMILES is read from it. * marks the point of attachment. ξ: configuration not given here. ξAsp(3ξ-OH) = NC(C(=O)O)C(O)C(=O)O; X3 = O=C(C(N[*:1])C(O)CCl)[*:2]; X2 = CCCCCCCCCCCC(O)CC(=O)*; Orn = NCCC[CH](N)C(=O)O; hSer = N[CH](CCO)C(=O)O; Dab = NCC[CH](N)C(=O)O; Dhb = C/C=C(\N)C(=O)O

With `C/C=C1\NC(=O)C(C(C)O)NC(=O)C(CCCN)NC(=O)C(CCO)NC(=O)CNC(=O)C(CCN)NC(=O)C(NC(=O)CC(O)CCCCCCCCCCC)COC(=O)C(C(O)CCl)NC(=O)C(C(O)C(=O)O)NC1=O` (centres unmarked) [ST-B, Syringotoxin B] (X2-S[Dab]G[hSer][Orn]T[Dhb][ξAsp(3ξ-OH)][X3]; ester 1-C; configuration not given here), the “antifungal activity (overall range)” value in assay [1] fell in the range of 0.8 to 200 g/mL. For the same molecule, the MIC range with Mucor spp. fell in the range of 6.25 to 100 µg/mL.
